The source made the active and inactive calls.
Tests used:
Cytochrome P450 2D6 = Cytochrome P450 2D6 (Homo sapiens, UniProt P10635);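 also: CYP2D6 member of a cytochrome P450 panel assay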
Cytochrome P450 2C9 = Cytochrome P450 2C9 (Homo sapiens, UniProt P11712)
[1] = molecular target: T1, Heat shock factor protein 1 (Mus musculus, UniProt P38532); experiment: decrease of HSF1-responsive luciferase luminescence – cell-based, NIH3T3, dose retest, confirmation (AID 2382); format: functional;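 also: NIH3T3 fibroblasts with HSF1-driven luciferase reporter stressed by proteasome inhibitor MG132; luminescence from HSF1-driven luciferase expression after 8 hours of MG132 stress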
T1 sequence (P38532 whole entry): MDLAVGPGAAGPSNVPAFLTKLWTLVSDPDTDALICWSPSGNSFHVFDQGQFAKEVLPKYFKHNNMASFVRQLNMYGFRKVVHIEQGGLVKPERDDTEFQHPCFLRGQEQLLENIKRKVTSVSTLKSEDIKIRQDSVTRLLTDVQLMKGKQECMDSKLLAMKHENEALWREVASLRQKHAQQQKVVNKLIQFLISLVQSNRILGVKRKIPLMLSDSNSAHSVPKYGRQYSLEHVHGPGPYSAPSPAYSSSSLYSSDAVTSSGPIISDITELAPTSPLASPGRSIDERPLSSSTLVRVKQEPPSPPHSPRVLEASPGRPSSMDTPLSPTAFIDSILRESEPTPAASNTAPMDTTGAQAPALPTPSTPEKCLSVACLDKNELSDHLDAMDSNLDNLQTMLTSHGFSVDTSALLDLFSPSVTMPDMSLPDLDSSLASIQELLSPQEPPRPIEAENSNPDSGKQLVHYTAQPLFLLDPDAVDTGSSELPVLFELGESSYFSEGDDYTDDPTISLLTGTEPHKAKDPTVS

[2] = viability of uninfected HEp-2 cells – cell-based, HTS, cytotoxicity control for RSV inhibitor project, dose response (AID 2410); format: functional; conditions: human respiratory syncytial virus
Cytochrome P450 3A4 = Cytochrome P450 3A4 (Homo sapiens, UniProt P08684);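 also: CYP3A4 tested as one member of a cytochrome P450 panel screen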
[3] = Luminescence Cell-Based Dose Response HTS to Identify Activators of Luciferase Translation or Activity in H4 […] Cells. [Related pubchem assays: 1829 (Project Summary), 1814 (Primary HTS)]; format: functional
H4 = experiment: Luminescence Cell-Based Dose Response HTS to Identify Activators of 5'UTR Stem-Loop Driven Prion Protein mRNA Translation in H4 Neuroglioblastoma Cells. [Related pubchem assays: 1829 (Project Summary), 1814 (Primary HTS)]; format: functional; conditions: Homo sapiens

Sequence of Cytochrome P450 3A4 (P08684 whole entry): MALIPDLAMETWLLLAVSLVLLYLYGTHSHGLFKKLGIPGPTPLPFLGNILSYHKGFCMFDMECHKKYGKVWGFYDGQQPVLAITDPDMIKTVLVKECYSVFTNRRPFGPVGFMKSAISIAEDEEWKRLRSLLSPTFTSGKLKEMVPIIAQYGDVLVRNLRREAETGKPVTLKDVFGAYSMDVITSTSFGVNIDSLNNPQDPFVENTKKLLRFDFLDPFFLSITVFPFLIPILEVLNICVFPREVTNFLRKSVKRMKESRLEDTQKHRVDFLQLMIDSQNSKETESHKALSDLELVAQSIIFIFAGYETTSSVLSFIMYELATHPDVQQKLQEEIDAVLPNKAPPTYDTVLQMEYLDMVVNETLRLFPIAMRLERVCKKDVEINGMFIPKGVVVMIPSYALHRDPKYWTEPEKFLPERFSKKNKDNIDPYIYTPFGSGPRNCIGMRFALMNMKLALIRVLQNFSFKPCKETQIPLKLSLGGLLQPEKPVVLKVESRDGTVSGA
Sequence of Cytochrome P450 2D6 (P10635 whole entry): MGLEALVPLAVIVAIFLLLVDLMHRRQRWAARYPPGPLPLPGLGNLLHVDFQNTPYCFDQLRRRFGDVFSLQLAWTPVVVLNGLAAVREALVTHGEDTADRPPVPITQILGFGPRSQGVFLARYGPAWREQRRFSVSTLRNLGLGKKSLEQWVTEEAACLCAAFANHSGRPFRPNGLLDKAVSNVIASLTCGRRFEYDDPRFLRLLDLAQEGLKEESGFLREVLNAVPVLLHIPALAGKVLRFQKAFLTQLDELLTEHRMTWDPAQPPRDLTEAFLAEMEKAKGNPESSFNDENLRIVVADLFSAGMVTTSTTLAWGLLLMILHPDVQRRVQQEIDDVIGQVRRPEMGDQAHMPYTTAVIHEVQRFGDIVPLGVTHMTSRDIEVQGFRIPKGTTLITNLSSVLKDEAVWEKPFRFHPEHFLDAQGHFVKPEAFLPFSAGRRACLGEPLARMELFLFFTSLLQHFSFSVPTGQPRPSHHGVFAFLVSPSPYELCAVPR
Sequence of Cytochrome P450 2C9 (P11712 whole entry): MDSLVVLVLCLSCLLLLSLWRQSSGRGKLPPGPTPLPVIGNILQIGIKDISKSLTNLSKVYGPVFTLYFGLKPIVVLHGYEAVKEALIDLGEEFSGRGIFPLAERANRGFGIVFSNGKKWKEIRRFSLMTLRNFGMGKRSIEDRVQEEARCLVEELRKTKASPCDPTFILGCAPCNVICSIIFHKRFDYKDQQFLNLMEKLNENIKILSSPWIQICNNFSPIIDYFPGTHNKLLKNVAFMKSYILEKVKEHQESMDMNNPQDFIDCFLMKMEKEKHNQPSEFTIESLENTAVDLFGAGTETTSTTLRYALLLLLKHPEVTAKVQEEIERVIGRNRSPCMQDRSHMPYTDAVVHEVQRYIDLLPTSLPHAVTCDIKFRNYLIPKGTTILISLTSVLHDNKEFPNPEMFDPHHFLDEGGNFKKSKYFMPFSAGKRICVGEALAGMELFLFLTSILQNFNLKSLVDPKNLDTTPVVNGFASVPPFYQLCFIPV

SMILES: Cc1cccc(Cn2cnc3c(NS(C)(=O)=O)c(C)c(C)cc32)c1
- AC50 (Cytochrome P450 2D6): 35.5 µM (inconclusive)
- AC50 (Cytochrome P450 2C9): 1.26 µM (inconclusive)

SMILES: CN(NC1OC(=O)c2ccccc21)c1ccc(C(F)(F)F)cc1[N+](=O)[O-] (stereo unspecified)
- EC50 [1]: > 195 µM (not active)

SMILES: CC(C)NC(=O)COC(=O)C1CSC2(c3ccc(Br)cc3)CCC(=O)N12 (stereo unspecified)
- EC50 [1]: > 195 µM (not active)

SMILES: CN(C)C(=O)c1ccc(-c2ccc3ncnc(NCc4cccs4)c3c2)cc1
- AC50 (Cytochrome P450 2D6): 20 µM (inconclusive)

SMILES: COc1ccccc1-c1ccc2ncnc(N(C)C)c2c1
- AC50 (Cytochrome P450 2D6): 12.6 µM (inconclusive)

SMILES: CCc1nn(C(C)C(=O)N2CCN(c3ccccc3)CC2)c(=O)c2cc3occc3n12 (stereo unspecified)
- CC50 [2]: 20.4 µM (active)

SMILES: Nc1ncnc2[nH]c(N3CCN(C(=O)c4ccccc4)CC3)nc12
- EC50 [1]: > 195 µM (not active)

SMILES: CCOC(=O)C(/C=N/CC(=O)O)=C(\O)OCC
- AC50 (Cytochrome P450 2D6): 39.8 µM (inconclusive)

SMILES: CCOC(=O)c1c(-c2ccccc2)cn2ccccc12
- AC50 (Cytochrome P450 2D6): 3.16 µM (inconclusive)
- AC50 (Cytochrome P450 3A4): 12.6 µM (inconclusive)

SMILES: CC1(C)Cc2c(C#N)c(NCCO)nc(-c3ccco3)c2CO1
- EC50 [1]: > 195 µM (not active)

SMILES: COc1ccc2nc(O)c(CNc3ccccc3)cc2c1
- CC50 [2]: 34.4 µM (active)

SMILES: CCCNC(=O)c1ccc(COc2ccc(CCC)cc2OC)o1
- EC50 [1]: > 195 µM (not active)

SMILES: Cc1ccccc1CSc1nccn1-c1ccccc1
- AC50 (Cytochrome P450 2D6): 17.8 µM (inconclusive)

SMILES: COc1ccc(/C=N/N(C)C2=NCCN2)c(OC)c1OC
- EC50 [1]: > 195 µM (not active)

SMILES: CCOC(=O)c1c(C)[nH]c(C2=NN=C(NC3CC3)SC2)c1C
- CC50 [2]: 28.1 µM (active)

SMILES: CCOC(=O)C1=C(NC(=S)NC(=O)c2ccccc2)c2ccccc2CC1(C)CC (stereo unspecified)
- CC50 [2]: 12.5 µM (active)

SMILES: Cc1ccc(/N=C/c2ccc[nH]2)c(O)c1
- EC50 [1]: > 195 µM (not active)

SMILES: C/C=C/c1ccc(OCC(=O)NCc2ccccc2OC)c(OC)c1
- CC50 [2]: 40.4 µM (active)

SMILES: Cc1cc(-c2ccc(C)c(S(=O)(=O)NCCC(C)N3CCCCCC3)c2)on1 (stereo unspecified)
- EC50 [1]: > 195 µM (not active)

SMILES: COc1ccc(NC(=O)C2C(c3ccccc3)C2(Cl)Cl)cc1 (stereo unspecified)
- CC50 [2]: 17.7 µM (active)

SMILES: Cn1c(CSc2nc3cc(Br)ccc3[nH]2)nc2ccccc21
- CC50 [2]: > 50 µM (active)

SMILES: CCCOc1ccc(-c2n[nH]c(S)n2)cc1
- CC50 [2]: 25.1 µM (active)

SMILES: COc1cccc(Nc2cc(C)c3ccccc3n2)c1
- CC50 [2]: 32 µM (active)

SMILES: Cc1noc(C)c1-c1ccc2ncnc(Nc3ccc(F)cc3)c2c1
- AC50 (Cytochrome P450 2D6): 39.8 µM (inconclusive)
- AC50 (Cytochrome P450 3A4): 15.8 µM (inconclusive)

SMILES: CC(=O)Nc1ccc(O)c(-c2nc3ccccc3s2)c1
- EC50 [3]: 21.2 µM (active)
- EC50 (H4): 22.5 µM (active)

SMILES: COc1cc(/C=C2/C(=N)N3N=C(CC(=O)N4CCOCC4)SC3=NC2=O)ccc1OCc1ccccc1
- EC50 [3]: 10.5 µM (active)
- EC50 (H4): 14.5 µM (active)

SMILES: CC1CCN(C(S)=NCCc2ccccc2)CC1
- EC50 [3]: 0.102 µM (active)
- EC50 (H4): 31.3 µM (active)

SMILES: C/C(=N/NC(=O)CNC(=O)c1ccccn1)c1ccc([N+](=O)[O-])cc1
- EC50 [1]: > 195 µM (not active)

SMILES: S=C(c1ccc(-c2ccc(Cl)cc2Cl)o1)N1CCCCC1
- EC50 [3]: 50 µM (active)
- EC50 (H4): 1.97 µM (active)

SMILES: CCn1c(SCc2nc3ccccc3[nH]2)nnc1-c1ccc(OC)cc1
- AC50 (Cytochrome P450 2D6): 20 µM (inconclusive)

SMILES: Nc1nc2ccc(Cl)cc2c2nc(-c3ccco3)nn12 [CGS-15943]
- AC50 (Cytochrome P450 2D6): 12.6 µM (inconclusive)
- AC50 (Cytochrome P450 3A4): 7.94 µM (inconclusive)
- AC50 (Cytochrome P450 2C9): 31.6 µM (inconclusive)

SMILES: CC(CCc1ccccc1)NC(=O)CCNS(=O)(=O)c1ccccc1 (stereo unspecified)
- EC50 [1]: > 195 µM (not active)

SMILES: O=C(COC(=O)/C=C/c1ccc(C(F)(F)F)cc1)NC1CC1
- EC50 [1]: > 195 µM (not active)

SMILES: COc1cc(C(=O)Nc2ccccc2NC(=O)c2cc(OC)c(OC)c(OC)c2)cc(OC)c1OC
- EC50 [1]: > 195 µM (not active)

SMILES: Cc1csc(NC(=O)C2=COCCO2)n1
- EC50 [3]: 3.11 µM (active)
- EC50 (H4): > 120 µM (not active)

SMILES: O=C(NCc1ccccc1C(F)(F)F)C1CC(c2ccc(C(F)(F)F)cc2)=NO1 (stereo unspecified)
- EC50 [1]: > 195 µM (not active)
